{"source": "patent US9309236B2", "about": "“PI-kinase inhibitors with broad spectrum anti-infective activity” (The Board of Trustees of the Leland Stanford Junior …, priority 2011, dated 2016)", "key": {"[1]": {"target": "p110γ (Homo sapiens, UniProt P48736)", "sequence (P48736 whole entry, species assumed)": "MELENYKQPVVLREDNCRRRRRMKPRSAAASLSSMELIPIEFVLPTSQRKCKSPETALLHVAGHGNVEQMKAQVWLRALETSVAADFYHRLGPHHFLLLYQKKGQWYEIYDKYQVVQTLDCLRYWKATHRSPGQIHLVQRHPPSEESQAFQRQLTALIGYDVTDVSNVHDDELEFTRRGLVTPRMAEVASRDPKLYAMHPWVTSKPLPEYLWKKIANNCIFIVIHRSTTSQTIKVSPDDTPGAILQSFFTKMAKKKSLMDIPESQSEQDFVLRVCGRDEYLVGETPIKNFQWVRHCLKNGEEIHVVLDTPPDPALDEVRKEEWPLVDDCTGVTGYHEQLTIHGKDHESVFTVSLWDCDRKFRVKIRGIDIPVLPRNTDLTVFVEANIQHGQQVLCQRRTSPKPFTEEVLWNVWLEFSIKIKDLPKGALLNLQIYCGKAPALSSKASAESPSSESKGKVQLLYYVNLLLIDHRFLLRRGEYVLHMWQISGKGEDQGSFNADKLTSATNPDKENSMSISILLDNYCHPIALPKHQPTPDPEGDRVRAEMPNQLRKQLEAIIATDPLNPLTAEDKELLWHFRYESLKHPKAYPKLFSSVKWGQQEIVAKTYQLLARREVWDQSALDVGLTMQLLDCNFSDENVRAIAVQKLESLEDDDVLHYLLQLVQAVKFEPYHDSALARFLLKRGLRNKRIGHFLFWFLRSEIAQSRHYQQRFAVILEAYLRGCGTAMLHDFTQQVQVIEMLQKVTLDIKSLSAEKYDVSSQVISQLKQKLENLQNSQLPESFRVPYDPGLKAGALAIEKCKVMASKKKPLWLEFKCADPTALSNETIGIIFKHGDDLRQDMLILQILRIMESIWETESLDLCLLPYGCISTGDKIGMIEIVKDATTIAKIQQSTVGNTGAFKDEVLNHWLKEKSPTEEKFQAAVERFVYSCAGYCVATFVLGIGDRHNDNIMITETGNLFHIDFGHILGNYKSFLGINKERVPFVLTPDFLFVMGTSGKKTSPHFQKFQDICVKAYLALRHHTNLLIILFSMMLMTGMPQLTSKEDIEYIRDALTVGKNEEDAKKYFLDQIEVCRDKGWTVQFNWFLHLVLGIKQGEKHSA", "assay": "PI3-kinase p110γ lipid kinase assay", "format": "biochemical", "settings": "read-out: IC50 PI3K 110g", "method": "In the assays described here, p110α-p85 complex and p110γ were acquired from Millipore. Assays were performed with La-phosphatidylinositol (Avanti) as described in Knight et al. Nat. Protoc. […] Inhibitor series were prepared 10% DMSO as 5× stocks for the assay. […] COS-7 cells were cultured in 10 cm dishes and transfected at 70% confluence with 10 μg of plasmid DNA (HA-tagged bovine PI4KIIIβ, HA-tagged human PI4KIIIα) using Lipofectamine 2000 and 5 ml Opti-MEM following the manufacturer's instructions. After 5 hours the transfection medium was replaced with 10 ml complete DMEM. 36 hrs post transfection, cells were washed once with 5 ml PBS (pH 7.4) and lysed in 1 ml of lysis buffer (1) on ice. […] To the lysates was added 200 μl of protein G Sepharose 4 fast flow beads that were prewashed with PBS and lysis buffer and 2 μg of anti-HA antibody. The tubes were then incubated overnight at 4 degrees C. in a tube rotator. […] Kinase reactions were run in a mixture of 45 μL of PI buffer (1 mM PI in kinase buffer), 10 μL of immunoprecipitated beads, 2 μL of inhibitors (dissolved and diluted in DMSO) or DMSO and 5 μL of [γ-^32P]-ATP (1 mM and 2 μCi/tube). The immunoprecipitates in PI buffer were pre-incubated with the drugs for 20 min prior the initiation of kinase reaction by adding ATP and the reactions were carried out for 30 min in 15 ml polypropolyne tubes. Reactions were terminated by addition of 3 ml of CHCl3:CH3OH:HCl (200:100:0.75) followed by 0.6 ml of 0.6N HCl to induce phase separation. The mixtures were vortexed, centrifuged at 2000 rpm for 2 min and the upper phase was discarded. To the lower phase was added 1.5 ml of CHCl3:CH3OH:0.6N HCl (3:48:47) and the mixture vortexed and centrifuged at 2000 rpm for 2 min. The lower phase was then transferred to counting vials and evaporated. Samples were counted in a scintillation beta counter after adding 5 ml of Instafluor (Perkin-Elmer).\n(§1) Compounds are tested in C.1.1. PI kinase assays as described by Shokat et al., “A membrane capture assay for lipid kinase activity.” Nat. Protoc."}, "[2]": {"tested_on": "human rhinovirus 14", "assay": "Rhinovirus assay: protection of HeLa S3 cells from cytopathic effect", "format": "cell-based", "settings": "Rhinovirus B, HRV14"}, "[3]": {"target": "HA-tagged bovine PI4KIIIβ (Bos taurus, UniProt O02810)", "sequence (O02810 whole entry)": "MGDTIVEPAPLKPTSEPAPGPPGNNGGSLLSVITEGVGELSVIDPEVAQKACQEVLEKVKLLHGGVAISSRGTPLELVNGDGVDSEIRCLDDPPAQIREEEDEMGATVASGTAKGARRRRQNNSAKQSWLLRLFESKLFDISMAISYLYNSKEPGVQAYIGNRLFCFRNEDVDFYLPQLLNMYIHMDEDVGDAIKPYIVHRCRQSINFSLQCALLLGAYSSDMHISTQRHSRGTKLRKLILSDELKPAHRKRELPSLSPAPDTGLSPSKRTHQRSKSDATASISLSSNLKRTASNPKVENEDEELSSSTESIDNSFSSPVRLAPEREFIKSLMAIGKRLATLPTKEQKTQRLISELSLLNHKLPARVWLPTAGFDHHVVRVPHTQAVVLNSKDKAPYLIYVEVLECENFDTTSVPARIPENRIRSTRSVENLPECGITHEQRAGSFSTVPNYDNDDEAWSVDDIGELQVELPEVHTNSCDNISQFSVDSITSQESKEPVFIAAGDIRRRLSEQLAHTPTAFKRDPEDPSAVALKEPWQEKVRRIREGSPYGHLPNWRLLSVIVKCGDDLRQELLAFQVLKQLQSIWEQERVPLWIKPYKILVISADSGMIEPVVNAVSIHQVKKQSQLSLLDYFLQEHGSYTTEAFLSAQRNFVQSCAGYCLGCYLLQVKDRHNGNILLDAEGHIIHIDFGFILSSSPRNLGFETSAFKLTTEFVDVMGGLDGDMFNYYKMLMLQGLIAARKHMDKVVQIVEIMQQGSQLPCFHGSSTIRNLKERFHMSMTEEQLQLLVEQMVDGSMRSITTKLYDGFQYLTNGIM", "assay": "PI4KIIIβ immunoprecipitate kinase assay with [γ-32P]-ATP", "format": "biochemical", "settings": "in vitro enzyme assays; read-out: IC50 PI4KIIIβ", "method": "In the assays described here, p110α-p85 complex and p110γ were acquired from Millipore. Assays were performed with La-phosphatidylinositol (Avanti) as described in Knight et al. Nat. […] Inhibitor series were prepared 10% DMSO as 5× stocks for the assay. […] COS-7 cells were cultured in 10 cm dishes and transfected at 70% confluence with 10 μg of plasmid DNA (HA-tagged bovine PI4KIIIβ, HA-tagged human PI4KIIIα) using Lipofectamine 2000 and 5 ml Opti-MEM following the manufacturer's instructions. After 5 hours the transfection medium was replaced with 10 ml complete DMEM. 36 hrs post transfection, cells were washed once with 5 ml PBS (pH 7.4) and lysed in 1 ml of lysis buffer (1) on ice. Lysates were collected by scraping and after 15 min they were centrifuged at 13,000 rpm for 10 min. To the lysates was added 200 μl of protein G Sepharose 4 fast flow beads that were prewashed with PBS and lysis buffer and 2 μg of anti-HA antibody. The tubes were then incubated overnight at 4 degrees C. in a tube rotator. […] Kinase reactions were run in a mixture of 45 μL of PI buffer (1 mM PI in kinase buffer), 10 μL of immunoprecipitated beads, 2 μL of inhibitors (dissolved and diluted in DMSO) or DMSO and 5 μL of [γ-^32P]-ATP (1 mM and 2 μCi/tube). The immunoprecipitates in PI buffer were pre-incubated with the drugs for 20 min prior the initiation of kinase reaction by adding ATP and the reactions were carried out for 30 min in 15 ml polypropolyne tubes. Reactions were terminated by addition of 3 ml of CHCl3:CH3OH:HCl (200:100:0.75) followed by 0.6 ml of 0.6N HCl to induce phase separation. The mixtures were vortexed, centrifuged at 2000 rpm for 2 min and the upper phase was discarded. To the lower phase was added 1.5 ml of CHCl3:CH3OH:0.6N HCl (3:48:47) and the mixture vortexed and centrifuged at 2000 rpm for 2 min. The lower phase was then transferred to counting vials and evaporated. Samples were counted in a scintillation beta counter after adding 5 ml of Instafluor (Perkin-Elmer)."}, "[4]": {"target": "PI3K C2b (Homo sapiens, UniProt O00750)", "sequence (O00750 whole entry)": "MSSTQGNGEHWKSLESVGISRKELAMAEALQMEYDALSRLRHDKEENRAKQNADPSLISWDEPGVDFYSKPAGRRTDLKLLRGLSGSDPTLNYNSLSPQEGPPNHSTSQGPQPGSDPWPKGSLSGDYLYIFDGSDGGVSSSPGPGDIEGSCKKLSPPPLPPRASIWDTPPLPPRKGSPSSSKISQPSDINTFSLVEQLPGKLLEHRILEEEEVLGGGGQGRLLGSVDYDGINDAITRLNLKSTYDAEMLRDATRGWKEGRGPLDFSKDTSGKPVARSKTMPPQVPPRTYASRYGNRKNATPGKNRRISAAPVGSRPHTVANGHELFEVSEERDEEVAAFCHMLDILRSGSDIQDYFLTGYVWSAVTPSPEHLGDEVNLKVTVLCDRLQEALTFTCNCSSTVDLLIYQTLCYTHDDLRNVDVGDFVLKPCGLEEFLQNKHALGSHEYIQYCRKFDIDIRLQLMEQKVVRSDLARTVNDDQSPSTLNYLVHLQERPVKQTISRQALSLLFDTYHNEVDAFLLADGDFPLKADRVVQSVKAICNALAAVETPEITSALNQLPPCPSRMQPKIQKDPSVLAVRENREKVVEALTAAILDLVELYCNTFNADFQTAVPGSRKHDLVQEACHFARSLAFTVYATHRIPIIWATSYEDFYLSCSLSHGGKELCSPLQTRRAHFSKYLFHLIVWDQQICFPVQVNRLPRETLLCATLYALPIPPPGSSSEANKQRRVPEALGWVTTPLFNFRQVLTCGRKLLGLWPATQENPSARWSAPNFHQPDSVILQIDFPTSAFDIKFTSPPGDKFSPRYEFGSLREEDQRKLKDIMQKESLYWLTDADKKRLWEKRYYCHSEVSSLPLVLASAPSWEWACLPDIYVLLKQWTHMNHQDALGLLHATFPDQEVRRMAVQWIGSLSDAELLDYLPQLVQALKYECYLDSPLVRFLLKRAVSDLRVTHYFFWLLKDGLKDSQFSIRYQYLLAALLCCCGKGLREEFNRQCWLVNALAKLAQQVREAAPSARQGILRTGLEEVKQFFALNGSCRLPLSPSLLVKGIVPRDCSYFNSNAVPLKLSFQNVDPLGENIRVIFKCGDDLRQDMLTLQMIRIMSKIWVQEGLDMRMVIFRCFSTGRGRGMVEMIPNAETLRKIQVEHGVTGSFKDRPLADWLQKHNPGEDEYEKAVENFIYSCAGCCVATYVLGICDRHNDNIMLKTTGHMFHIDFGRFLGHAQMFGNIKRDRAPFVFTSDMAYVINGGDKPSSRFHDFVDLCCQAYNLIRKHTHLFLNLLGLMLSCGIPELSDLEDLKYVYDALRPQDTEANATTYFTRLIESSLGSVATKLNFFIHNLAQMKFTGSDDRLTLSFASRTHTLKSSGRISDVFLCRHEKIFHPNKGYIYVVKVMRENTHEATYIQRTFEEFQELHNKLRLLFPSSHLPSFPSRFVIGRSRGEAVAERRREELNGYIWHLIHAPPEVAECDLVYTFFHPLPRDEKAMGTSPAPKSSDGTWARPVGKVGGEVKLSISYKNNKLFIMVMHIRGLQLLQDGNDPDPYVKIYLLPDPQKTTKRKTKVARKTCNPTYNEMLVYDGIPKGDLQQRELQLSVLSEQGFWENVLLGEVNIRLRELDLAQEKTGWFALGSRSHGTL", "assay": "PI3-kinase C2β (type II PI3-kinase beta) kinase assay", "format": "biochemical", "method": "Compounds are tested in C.1.1. PI kinase assays as described by Shokat et al., “A membrane capture assay for lipid kinase activity.” Nat. Protoc. 2007; 2(10):2459-66."}, "[5]": {"tested_on": "HAV replicon (HAV-Bla)", "assay": "HAV assay: plating efficiency of Huh7-derived cells harboring blasticidin-selectable HAV replicon", "format": "cell-based"}, "[6]": {"tested_on": "PI(4)P and PI(4,5)P2 in Huh7.5 cells", "assay": "Immunofluorescence of intracellular PI(4)P and PI(4,5)P2 pools in Huh7.5 cells", "format": "cell-based", "method": "(§2) FIG. 1 illustrates that the exemplary compound PT423 decreases PI(4)P (top panels) and PI(4,5)P2 (bottom panels) in a dose-dependent manner. Left panels: uninfected Huh7.5 cells; right panels: HCV-infected Huh7.5 cells. Cells were treated with the indicated concentrations of PT423 or vehicle control, and analyzed by immunofluorescence with antibodies to PI(4)P or PI(4,5)P2 (green) along with an antibody to calnexin (red) to control for ER morphology.\nTo further confirm its mechanism of action the effect of PT423 on PI-4 levels was determined in cells using immunofluorescence to monitor the intracellular localized pools of PI-4. The effect of PT423 on intracellular pools of PIP2 was tested, which were predicted to be similarly sensitive to inhibition using PT423.\nas §2, with “that” for “that the exemplary compound”"}, "[7]": {"target": "PI3K C2a (Homo sapiens, UniProt O00443)", "assay": "PI3-kinase C2α (type II PI3-kinase alpha) kinase assay", "format": "biochemical", "method": "as §1"}, "[8]": {"settings": "uninfected and HCV-infected Huh7.5 cells, immunofluorescence, FIG. 1"}}, "note": "Like-named read-outs stand apart in the source and are kept apart here."}
{"compound": "COc1ccc(-c2sc(NC(=O)C3CCCC3)nc2C)cc1S(=O)(=O)Nc1ccc(O)cc1", "note": "[PT423]", "values": [{"measurement": "IC50", "setting": "[1]", "value": 64, "unit": "nM"}, {"measurement": "EC50", "setting": "[2]", "value": 0.32, "unit": "nM"}, {"measurement": "IC50", "setting": "[3]", "value": 7, "unit": "nM"}, {"measurement": "IC50", "setting": "[4]", "value": 28, "unit": "nM"}, {"measurement": "EC50", "setting": "[5]; 336 h, read-out: EC50 (concentration at which plating efficiency is decreased by 50%), HAV-Bla cells, over two weeks culture", "value": "< 50", "unit": "nM"}, {"measurement": "EC50", "setting": "[5]; read-out: (column without head; EC50 HAV)", "value": "< 50", "unit": "nM"}, {"measurement": "effect on ER (calnexin co-staining)", "setting": "[6]; control for non-specific effects on the cells", "value": "absence of any detectable effects on the ER"}, {"measurement": "effect on PI-4 (PI(4)P) levels", "setting": "[6]; [8]", "value": "dose-dependent decrease"}, {"measurement": "effect on PIP2 (PI(4,5)P2) levels", "setting": "[6]; [8]", "value": "dose-dependent decrease"}, {"measurement": "IC50", "setting": "[7]", "value": "> 10000", "unit": "nM"}]}
